Reference: ChEMBL document CHEMBL1158848, “Synthesis and separation of potential anticancer active dihalocephalomannine diastereomers from extracts of Taxus yunnanensis” (1998)

Assay: Cytotoxicity against human NCI60 cells
Assay type: functional

| Compound | GI50 | LC50 (50% lethal concentration) | TGI |
| --- | --- | --- | --- |
| CC(=O)O[C@H]1C(=O)[C@@]2(C)[C@H]([C@H](OC(=O)c3ccccc3)[C@]3(O)C[C@H](OC(=O)[C@H](O)[C@@H](NC(=O)[C@@](C)(Cl)[C@H](C)Cl)c4ccccc4)C(C)=C1C3(C)C)[C@]1(OC(C)=O)CO[C@@H]1C[C@@H]2O | 210 nM | 32000 nM | 6300 nM |
| CC(=O)O[C@H]1C(=O)[C@@]2(C)[C@H]([C@H](OC(=O)c3ccccc3)[C@]3(O)C[C@H](OC(=O)[C@H](O)[C@@H](NC(=O)[C@](C)(Cl)[C@@H](C)Cl)c4ccccc4)C(C)=C1C3(C)C)[C@]1(OC(C)=O)CO[C@@H]1C[C@@H]2O | 140 nM | 29000 nM | 4200 nM |
| CC(=O)O[C@H]1C(=O)[C@@]2(C)[C@H]([C@H](OC(=O)c3ccccc3)[C@]3(O)C[C@H](OC(=O)[C@H](O)[C@@H](NC(=O)c4ccccc4)c4ccccc4)C(C)=C1C3(C)C)[C@]1(OC(C)=O)CO[C@@H]1C[C@@H]2O [PACLITAXEL] | 0.65 nM |  | 150 nM |
